Results taken from PubChem BioAssay AID1508591.
Where a SMILES comes first, the peptide text is derived from it. [ ]: non-standard residue; d: D form. ξ: configuration not given here. ξLac(3-iPr) = CC(C)CC(O)C(=O)O; NMeV = CN[CH](C(=O)O)C(C)C; NMeA = CN[CH](C)C(=O)O; βAla = NCCC(=O)O

Conditions: rat; liver microsomes; pH 7.4; 15.0 min; 1.0 µM

Structure (SMILES) | half-life
Cn1cc(C2=C(c3cn(C)c4cc([N+](=O)[O-])ccc34)C(=O)NC2=O)c2ccccc21 | 4.05 min
COCCn1ccc2c(C3=CCOCC3)nc(-c3cccc(NC(C)=O)c3)cc21 | > 30 min
O=C1CCCC2=C1C(c1ccccc1I)N=C(Nc1nc3ccccc3o1)N2 (stereo not drawn) | 8.4 min
c1coc(-c2nc3ccncc3[nH]2)c1 | > 30 min
COCCn1ccc2c(C3=CCOCC3)nc(-c3ccc4c(c3)CNC4=O)cc21 | 9.18 min
CCC(C)C1NC(=O)C2CCCN2C(=O)C(CC(C)C)OC(=O)CCNC(=O)C(C)N(C)C(=O)C(C(C)C)N(C)C1=O (stereo not drawn) (cyclo([ξLac(3-iPr)]PI[NMeV][NMeA][βAla]); configuration not given here) | 18.1 min
Cc1cn2c(N)c(Cl)cc(C(=O)NCC3CCN(CC(C)C)CC3)c2n1 | > 30 min
CCC(CC)c1cc([C@H]2CN3CC[C@H]2C[C@@H]3CNC(C)=O)nc(-c2ccncc2)n1 | 10.9 min
N#Cc1ccccc1CSc1nc2ncc(Br)cc2[nH]1 | 6.6 min
CC(CNC(=O)C1CCN(Cc2cc3ccccc3n2Cc2ccccc2)CC1)c1ccccc1 (stereo not drawn) | 1.15 min
COc1ccc(C)cc1Nc1c2c(nc3ccccc13)CCC2 | 1.55 min
COc1ccnc(NC(=S)N2CCN(c3ncc(C(F)(F)F)cc3Cl)CC2)c1 | > 30 min
Cc1ccnc(NC(=S)N2CCN(c3cc(Cl)cc(Cl)c3)CC2)c1 | > 30 min
Cc1ccc(NS(=O)(=O)c2cc3c(cc2N[C@H](C)CO)NC(=O)CC3)cc1C | 1.71 min
FC(F)(F)c1ccc(N2CCN(C(=S)Nc3ccccn3)CC2)cc1 | > 30 min
CC(C)CNc1ccnc(NCc2csc(-c3ccccc3)n2)n1 | 2.07 min
CC(C=CC(=O)NO)=C[C@@H](C)C(=O)c1ccc(N(C)C)cc1 | 4.06 min
CN(C)CC/C=C1\c2ccccc2Sc2ccc(Cl)cc21 | 1.76 min
Nc1ccc(-c2cccc3c(=O)cc(N4CCOCC4)oc23)cc1 | > 30 min
CC(C)NC(=O)N1C[C@@H]2C[C@H](C1)c1ccc(-c3cccc(C(F)(F)F)c3)c(=O)n1C2 | 12.5 min
O=c1ncn2nc(Sc3ccc(F)cc3F)ccc2c1-c1c(Cl)cccc1Cl | > 30 min
NC(=O)C1CCN(c2nc(-c3ccccc3Br)cs2)CC1 | 2.86 min

Structure (SMILES) | half-life
CNC(=O)Cn1cc(-c2ccc3c(c2)C(F)CC32NC(=O)N(CC(=O)N(Cc3ccc(F)cc3)[C@@H](C)C(F)(F)F)C2=O)cn1 (stereo partly drawn) | 18.9 min
CCCc1cc(C)[nH]c(=O)c1CNC(=O)c1cc(-c2ccc(N3CCN(C(C)C)CC3)nc2)cc2c1cnn2C(C)C | 25 min
NC(=O)C1CCN(c2nc(-c3cccc(N)c3)cs2)CC1 | > 30 min
CCCCCOc1ccccc1/C(=C\SC)n1ccnc1 | 6.67 min
CN(C)c1cccc(-c2nccc(N3CCC(C(N)=O)CC3)n2)c1 | 8.43 min
COc1ccc(Nc2nc(-c3cccc(OC)c3)no2)cc1 | 20.3 min
CN1CCCC(CC2c3ccccc3Sc3ccccc32)C1 (stereo not drawn) | 1.4 min
CCCN1CNc2c(c(=O)[nH]c(=S)n2CCc2cccc(Cl)c2Cl)C1 | 2.47 min
CN(C)CCNC(=O)c1nc(-c2ccccc2)cc2[nH]ccc12 | 1.92 min
COc1cc(-c2nc(Nc3ccc(F)c(F)c3)c3ccccc3n2)c(F)cn1 | > 30 min
CN1CCN(c2cc(-c3nc(Nc4ccc(F)c(F)c4)c4ccccc4n3)ccn2)CC1 | 5.3 min
COc1ccc(-n2nc(C)c([C@@H]3C=C[C@@H](NCc4cccc(Cl)c4)C3)c2C)cc1 | 4.19 min
COc1ccc(-c2ccc3nc(-c4ccccc4C)oc3c2)c(OC)c1OC | > 30 min
O=C(NC1CCCc2c1[nH]c1ccc(Cl)cc21)c1ccncc1 (stereo not drawn) | > 30 min
O=C(O)c1cccc(-n2cccc2/C=C2/NC(=O)N(c3cccc(Cl)c3)C2=O)c1 | > 30 min
CCS(=O)(=O)c1nc(-c2ccc(Cl)cc2)cc(C(F)(F)F)n1 | 5.7 min
CCOc1cc(CCNC(=O)c2cc3sccc3n2Cc2ccccc2)cc(F)c1OCC | 2 min
O=c1[nH]c(C2CCCN(CC3CCCCC3)C2)nn1-c1ccc(Cl)cc1 (stereo not drawn) | > 30 min
CN(C)c1cccc(-c2cnc(N3CCC(c4ncc[nH]4)CC3)s2)c1 | 4.63 min
Cc1cc(-c2nnc3n2CCCCC3)c(C)n1-c1ccc(Cl)c(Cl)c1 | 1.9 min
O=C(Nc1ccc(F)cc1F)c1cc(-c2ccc[nH]2)n[nH]1 | 16.7 min
CC(C)c1ccc(OCc2nc3c(n2Cc2ccccc2)C(=O)N(CC2CCOCC2)CCN3)cc1 | 1.68 min

Structure (SMILES) | half-life
COc1ccc(C2CC(=O)Nc3nc(N)sc32)cc1OC (stereo not drawn) | > 30 min
O=C1CCc2cc(S(=O)(=O)Nc3ccc(F)c(Cl)c3)c(F)cc2N1 | 16.8 min
C[S+](=O)([O-])c1ccc(-c2nc(C(=O)N3CCOCC3)n3ccccc23)cc1 | > 30 min
CNc1oc(-c2cccc3ccccc23)nc1C(=O)OC | > 30 min
c1ccc(Nc2cc3c(cn2)CN(Cc2ccc4[nH]ccc4c2)CCN3)cc1 | 2.09 min
O=C1Nc2cc(Cl)ccc2/C1=C\c1cc(Cl)c(O)c(Cl)c1 | > 30 min
COc1ccc(-n2nc(C3CCCN(CC4CCCCC4)C3)[nH]c2=O)cc1 (stereo not drawn) | > 30 min
Nc1nc2c(s1)C(c1ccccc1)CC(=O)N2 (stereo not drawn) | > 30 min
CCOC(=O)c1cc(-c2ccco2)nc2c1c(C)nn2CCC#N | 3.57 min
O=C1CCCC2=C1C1(CCCC1)N=C(Nc1nc3cc(Br)ccc3o1)N2 | 4.9 min
CCCCCn1c(CCCNC(=O)c2ccccc2OC)nc2ccccc21 | 1.31 min
CS(=O)(=O)c1cccc(-c2csc(N3CCC(C(N)=O)CC3)n2)c1 | > 30 min
COc1cc(NC(=O)c2cc(-c3ccccc3O)no2)cc(OC)c1OC | 12.5 min
O=C(NCC1CCOCC1)C1CC(=O)N(c2n[nH]c3cc(Br)ccc23)C1 (stereo not drawn) | > 30 min
CCOc1ccc(CNc2ccc3c(c2)ncn3C)cc1 | 21 min
COc1ncccc1-c1cc2c(ccn2C(C)C)c(C(=O)NCc2c(C)cc(C)[nH]c2=O)n1 | 5.49 min
CCCN1CNc2c(c(=O)[nH]c(=S)n2Cc2ccc(OC)c(OC)c2)C1 | > 30 min
COc1ccc(NC(=O)c2c(C)cccc2C)cc1[S+](=O)([O-])N1CCCCC1 | 4.2 min
O=C1Nc2cccc(Cl)c2/C1=C\c1cc(Cl)c(O)c(Cl)c1 | > 30 min
O=[S+]([O-])(Nc1ccc(N2CCNCC2)cc1)c1ccc(NCc2ccc(Br)cc2O)cc1 | > 30 min

Now from value to compound:

half-life | Structure (SMILES)
> 30 min | N=c1c2c(ccn1CCc1ccccc1)Oc1ccc3ccccc3c1C2c1ccccc1 (stereo not drawn)
12 min | CCN1C(=O)c2ccccc2[S@](=O)c2ccc(C(=O)NCc3ccc(F)cc3)cc21
13 min | CC(Nc1ccc([S+](=O)([O-])Nc2nccs2)cc1)c1ccccc1 (stereo not drawn)
25 min | Fc1ccc(-c2ccc(Nc3nc(-c4ccncc4)nc4ccccc34)cc2F)c(Cl)c1
> 30 min | O=C(Nc1ccccc1C(=O)Nc1cccc(C(F)(F)F)c1)c1ccccc1
6.77 min | COc1ccc(Nc2cnc3ccc(-c4ccc(OC)c(OC)c4)nn23)cc1
10 min | O=C(Cc1ccc(Cl)c(Cl)c1)Nc1ccc(S(=O)(=O)Nc2cccc(O)c2)cc1
3 min | COc1ccccc1-c1[nH]nc2ncc(-c3ccc(C)cc3)nc12
10 min | Cc1cnc(NC(=O)c2ccc(-c3cccc([N+](=O)[O-])c3)o2)s1
5.9 min | COc1ccc(NC(=O)c2c(C)c(C(C)=O)c(C)n2C)cc1S(=O)(=O)Nc1ccc(Br)cc1
11 min | Cc1ccccc1C(=O)N1CCc2cc(-c3nc(NC(=O)CC4CCCCC4)sc3C)ccc21
2.45 min | O=C(CCS(=O)(=O)c1nc(-c2cccs2)cc(C(F)(F)F)n1)Nc1ccc(OC(F)(F)F)cc1
19 min | Fc1cc(Nc2nc(-c3ccncc3)nc3ccccc23)ccc1-c1cn[nH]c1
0.99 min | CCN(C(=O)C(NS(=O)(=O)c1ccc(Br)s1)c1ccccc1)c1ccc(C)c(C)c1 (stereo not drawn)
20 min | Cc1ccc(S(=O)(=O)Nc2cnccc2C(=O)Nc2nc(-c3cc4ccccc4o3)cs2)cc1
9.09 min | COC(=O)c1cccc(NC(=O)c2cnc(-c3ccc(F)cc3)nc2-c2ccncc2)c1
8.3 min | Cc1ccc(NC(=O)c2cc(-c3ccc(C)o3)nc3ccccc23)nc1
> 30 min | CC(=O)c1c(C)[nH]c(C(=O)Nc2cccc([S+](=O)([O-])Nc3ccncc3)c2)c1C
22 min | COc1cc(Nc2nc(-c3ccncc3)nc3ccccc23)ccc1NS(C)(=O)=O
1.38 min | CCOc1ccccc1N(CC(=O)Nc1cc(OC)ccc1OC)S(=O)(=O)c1ccccc1

half-life | Structure (SMILES)
7.7 min | COc1ccc(NC(=O)c2ccccc2)cc1S(=O)(=O)Nc1ccc(Br)cc1
> 30 min | Cc1ccc(S(=O)(=O)Nc2cnccc2C(=O)Nc2nc(-c3ccc(-c4ccccc4)cc3)cs2)cc1
13 min | COc1cccc(CNc2ccc(S(=O)(=O)Nc3cnc4ccccc4c3)cc2)c1O
1.1 min | CCN(CC)S(=O)(=O)c1ccc(N2CCCC2)c(NS(=O)(=O)c2ccccc2)c1
5.7 min | Cc1ccc(-c2cc(C(=O)Nc3ncco3)c3ccccc3n2)cc1C
6.9 min | Cc1ccc(S(=O)(=O)Nc2cnccc2C(=O)Nc2nc(-c3ccc(Oc4ccccc4)cc3)cs2)cc1
10.3 min | Cc1nn(CCc2nc(-c3ccccc3)cs2)c2[nH]c(=O)cc(C(F)(F)F)c12
5 min | CC1CN(c2ccc(Nc3nc(-c4ccncc4)nc4ccccc34)cc2F)CC(C)O1 (stereo not drawn)
> 30 min | COc1cccc(CNc2ccc(S(=O)(=O)Nc3cccc(N4CCNCC4)c3)cc2)c1O
9.1 min | Cc1ccc(-c2cc(C(=O)Nc3ccc(-n4cccn4)cc3)c3ccccc3n2)cc1C
1.19 min | O=C(CSc1nc(-c2ccc(F)cc2)[nH]c1-c1ccc(F)cc1)Nc1ccc2c(c1)OCCO2
> 30 min | Fc1cc(Nc2nc(-c3ccncc3)nc3ccccc23)ccc1OC(F)(F)F
> 30 min | O=C(O)c1ccnc(-c2cc(C(=O)NCCc3ccccc3)ccn2)c1
2.8 min | CC(C)c1ccccc1-c1ncc(F)c(NCc2ccc(-c3cccnc3)s2)n1
4.4 min | CC(C)c1ccccc1-c1ncc(F)c(NCc2ccc(-n3ccnn3)cc2)n1
1.2 min | CSc1nn(Cc2cccc(C)c2)c(N)c1S(=O)(=O)c1ccccc1
1.8 min | CC(C)COc1ccc(-c2ccc(=O)n(CC(=O)NCCc3ccccc3)n2)cc1
24 min | Cc1sc(NC(=O)Cc2ccc3c(c2)OCO3)nc1-c1ccc2c(c1)CCN2C(=O)c1ccccc1Cl
28 min | CC(C)C(=O)Nc1cccc(NC(=O)c2cc3ccccc3o2)c1
